How the values were obtained:
HDAC6 enzyme = target: T1, HDAC6 enzyme (Homo sapiens, UniProt Q9UBN7); test: HDAC1/6 Enzyme Inhibitory Assay (HDAC-Glo I/II Assay kit), HDAC6; format: biochemical; settings: 1 μM test compound, wells without enzyme = 100% inhibition; for inhibition at 1 µM: read-out: HDAC6 inhibitory rate (%) (1 μM)
T1 construct: transducing full length HDAC1 and HDAC6 genes into Sf-9 insect cells; GST; purchased SignalChem; host or cells: Sf-9 insect cells
T1 sequence (Q9UBN7 1-1215): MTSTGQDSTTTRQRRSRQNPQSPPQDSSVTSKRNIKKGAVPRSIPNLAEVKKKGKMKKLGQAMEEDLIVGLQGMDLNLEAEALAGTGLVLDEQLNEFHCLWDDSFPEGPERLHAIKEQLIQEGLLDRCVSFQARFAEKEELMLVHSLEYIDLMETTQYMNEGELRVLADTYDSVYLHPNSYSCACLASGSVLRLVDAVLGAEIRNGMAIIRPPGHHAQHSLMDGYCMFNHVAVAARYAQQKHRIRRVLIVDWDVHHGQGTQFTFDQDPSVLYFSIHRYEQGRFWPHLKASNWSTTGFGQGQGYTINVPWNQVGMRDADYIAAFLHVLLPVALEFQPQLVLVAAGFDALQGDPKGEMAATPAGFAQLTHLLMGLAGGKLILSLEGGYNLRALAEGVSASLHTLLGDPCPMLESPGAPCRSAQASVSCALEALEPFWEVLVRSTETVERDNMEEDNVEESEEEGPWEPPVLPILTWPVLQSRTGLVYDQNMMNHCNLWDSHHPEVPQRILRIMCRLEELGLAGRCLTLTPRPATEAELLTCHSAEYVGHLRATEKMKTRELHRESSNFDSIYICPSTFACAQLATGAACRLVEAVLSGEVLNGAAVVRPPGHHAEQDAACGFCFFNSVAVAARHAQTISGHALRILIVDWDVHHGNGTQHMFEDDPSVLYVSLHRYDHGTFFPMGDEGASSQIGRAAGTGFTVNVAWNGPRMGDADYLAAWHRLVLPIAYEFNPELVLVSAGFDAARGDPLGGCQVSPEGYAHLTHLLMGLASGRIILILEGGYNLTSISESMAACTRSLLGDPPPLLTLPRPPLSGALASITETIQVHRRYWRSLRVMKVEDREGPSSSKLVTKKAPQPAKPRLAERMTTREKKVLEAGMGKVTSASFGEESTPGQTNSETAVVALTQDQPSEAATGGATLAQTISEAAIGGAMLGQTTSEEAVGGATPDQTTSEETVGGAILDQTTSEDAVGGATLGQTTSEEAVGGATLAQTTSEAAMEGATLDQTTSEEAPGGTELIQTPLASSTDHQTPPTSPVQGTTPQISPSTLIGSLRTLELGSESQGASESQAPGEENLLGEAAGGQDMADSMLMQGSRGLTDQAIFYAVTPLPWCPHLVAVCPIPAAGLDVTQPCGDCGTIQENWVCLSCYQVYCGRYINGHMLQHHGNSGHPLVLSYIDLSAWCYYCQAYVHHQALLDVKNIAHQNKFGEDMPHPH
Procedure, shortened: (§1)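 Inhibitory activity derives from HDAC-Glo luminescence, expressed relative to wells lacking enzyme (100% inhibition). Compounds meet full-length GST-purified HDAC1 or HDAC6 for 60 min at room temperature before a 20 min substrate-developer reaction.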

HDAC9 enzyme = target: T2, HDAC9 enzyme (Homo sapiens, UniProt Q9UKV0); test: HDAC9 Enzyme Inhibitory Assay (HDAC-Glo class IIa); format: biochemical; settings: 1 μM test compound, wells without enzyme = 100% inhibition; for inhibition at 1 µM: read-out: HDAC9 inhibitory rate (%) (1 μM)
T2 construct: transducing full length HDAC9 gene into Sf-9 insect cells; made in house; host or cells: Sf-9 insect cells
T2 sequence (Q9UKV0 whole entry, species assumed): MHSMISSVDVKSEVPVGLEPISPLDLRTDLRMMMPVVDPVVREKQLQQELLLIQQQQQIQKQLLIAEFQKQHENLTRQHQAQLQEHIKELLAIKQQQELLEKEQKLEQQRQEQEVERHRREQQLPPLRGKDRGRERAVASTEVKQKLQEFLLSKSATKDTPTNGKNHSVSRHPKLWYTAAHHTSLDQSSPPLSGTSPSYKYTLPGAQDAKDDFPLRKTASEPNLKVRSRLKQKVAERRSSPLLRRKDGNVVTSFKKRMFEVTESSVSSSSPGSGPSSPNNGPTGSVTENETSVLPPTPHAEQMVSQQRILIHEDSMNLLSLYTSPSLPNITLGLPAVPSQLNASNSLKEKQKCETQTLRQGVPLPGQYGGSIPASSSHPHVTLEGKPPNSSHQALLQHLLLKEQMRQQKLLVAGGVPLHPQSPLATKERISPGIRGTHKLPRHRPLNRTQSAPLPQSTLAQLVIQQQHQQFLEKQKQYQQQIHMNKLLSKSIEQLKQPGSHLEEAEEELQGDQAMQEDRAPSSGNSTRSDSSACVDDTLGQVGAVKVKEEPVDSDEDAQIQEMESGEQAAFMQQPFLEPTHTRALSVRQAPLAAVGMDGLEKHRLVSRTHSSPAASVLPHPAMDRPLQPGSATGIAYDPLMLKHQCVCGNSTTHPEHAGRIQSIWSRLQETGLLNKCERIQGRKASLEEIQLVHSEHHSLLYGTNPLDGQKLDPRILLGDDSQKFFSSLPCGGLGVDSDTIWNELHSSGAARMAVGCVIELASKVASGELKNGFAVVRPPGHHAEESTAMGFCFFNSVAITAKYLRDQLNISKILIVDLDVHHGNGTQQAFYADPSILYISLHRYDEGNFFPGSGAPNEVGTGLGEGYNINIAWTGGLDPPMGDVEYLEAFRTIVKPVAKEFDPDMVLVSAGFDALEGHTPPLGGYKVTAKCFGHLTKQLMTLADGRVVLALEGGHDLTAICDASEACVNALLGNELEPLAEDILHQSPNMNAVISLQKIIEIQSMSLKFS
Procedure, shortened: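 Luminescent HDAC-Glo class IIa readout after a 20 min room-temperature reaction; relative inhibition referenced to enzyme-free wells as 100%. Test compound first preincubated 60 min with Sf-9-expressed, Ni-NTA-purified full-length HDAC9 in pH 7.5 Tris buffer containing 135 mM NaCl, 0.6 mM glutathione and 0.01% Tween-20.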

HDAC1 enzyme = target: T3, HDAC1 enzyme (Homo sapiens, UniProt Q13547); test: HDAC1/6 Enzyme Inhibitory Assay (HDAC-Glo I/II Assay kit), HDAC1; format: biochemical; settings: 1 μM test compound, wells without enzyme = 100% inhibition; for inhibition at 1 µM: read-out: HDAC1 inhibitory rate (%) (1 μM)
T3 construct: transducing full length HDAC1 and HDAC6 genes into Sf-9 insect cells; GST; purchased SignalChem; host or cells: Sf-9 insect cells
T3 sequence (Q13547 whole entry): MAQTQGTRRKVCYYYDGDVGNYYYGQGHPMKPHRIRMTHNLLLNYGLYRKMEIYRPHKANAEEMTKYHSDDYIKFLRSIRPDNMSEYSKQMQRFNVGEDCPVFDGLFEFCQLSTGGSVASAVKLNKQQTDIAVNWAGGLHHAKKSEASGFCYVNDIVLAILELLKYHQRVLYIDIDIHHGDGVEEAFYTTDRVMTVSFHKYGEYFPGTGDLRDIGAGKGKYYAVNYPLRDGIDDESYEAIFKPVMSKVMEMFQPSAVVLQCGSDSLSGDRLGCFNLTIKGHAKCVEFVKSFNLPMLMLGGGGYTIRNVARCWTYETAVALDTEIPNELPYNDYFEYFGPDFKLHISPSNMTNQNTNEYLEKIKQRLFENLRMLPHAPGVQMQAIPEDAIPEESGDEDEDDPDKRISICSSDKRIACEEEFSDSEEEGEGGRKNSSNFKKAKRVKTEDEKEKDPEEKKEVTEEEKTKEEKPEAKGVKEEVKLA
Procedure, shortened: as §1

| inhibition at 1 µM (HDAC6 enzyme) | inhibition at 1 µM (HDAC9 enzyme) | inhibition at 1 µM (HDAC1 enzyme) | melting point | HDAC6 inhibitory rate (%) (1 μM) (HDAC6 enzyme; 1 µM) | HDAC9 inhibitory rate (%) (1 μM) (HDAC9 enzyme; 1 µM) | HDAC1 inhibitory rate (%) (1 μM) (HDAC1 enzyme; 1 µM) | SMILES |
| --- | --- | --- | --- | --- | --- | --- | --- |
| 99% | 34% | 4% | – | – | – | – | O=C(N[C@@H]1CCCC[C@H]1N1Cc2ccc(-c3noc(C(F)(F)F)n3)cc2C1=O)N1CCCC1 [Example 158, N-((1R,2R)-2-(1-oxo-6-(5-(trifluoromethyl)-1,2,4-oxadiazol-3-yl)-1,3-dihydro-2H-isoindol-2-yl)cyclohexyl)pyrrolidine-1-carboxamide] |
| 90% | 86% | 34% | – | – | – | – | O=C(N[C@H]1COCC[C@@H]1N1Cc2ccc(-c3noc(C(F)(F)F)n3)cc2C1=O)[C@H]1CC1(F)F [Example 221, (1R)-2,2-difluoro-N-((3R,4S)-4-(1-oxo-6-(5-(trifluoromethyl)-1,2,4-oxadiazol-3-yl)-1,3-dihydro-2H-isoindol-2-yl)tetrahydro-2H-pyran-3-yl)cyclopropanecarboxamide] |
| 97% | 99% | 98% | – | – | – | – | O=C1c2cc(-c3noc(C(F)(F)F)n3)ccc2CN1[C@@H]1CCNC[C@H]1c1cccc(Cl)c1 (relative stereo) [Example 53, 2-(trans-3-(3-chlorophenyl)piperidin-4-yl)-6-(5-(trifluoromethyl)-1,2,4-oxadiazol-3-yl)isoindolin-1-one] |
| 100% | 45% | 9% | – | – | – | – | O=C(N[C@@H]1CCCC[C@H]1N1Cc2ccc(-c3noc(C(F)(F)F)n3)cc2C1=O)[C@H]1CCCO1 [Example 129, (2R)-N-((1R,2R)-2-(1-oxo-6-(5-(trifluoromethyl)-1,2,4-oxadiazol-3-yl)-1,3-dihydro-2H-isoindol-2-yl)cyclohexyl)tetrahydrofuran-2-carboxamide] |
| 98% | 64% | 8% | – | – | – | – | O=C1CCCN1[C@@H]1COCC[C@H]1N1Cc2ccc(-c3noc(C(F)(F)F)n3)cc2C1=O [Example 177, 2-((3S,4R)-3-(2-oxopyrrolidin-1-yl)tetrahydro-2H-pyran-4-yl)-6-(5-(trifluoromethyl)-1,2,4-oxadiazol-3-yl)isoindolin-1-one] |
| 99% | 55% | 11% | – | – | – | – | O=C(N[C@@H]1CCCC[C@H]1N1Cc2ccc(-c3noc(C(F)(F)F)n3)cc2C1=O)C1CC(F)(F)C1 [Example 125, 3,3-difluoro-N-((1R,2R)-2-(1-oxo-6-(5-(trifluoromethyl)-1,2,4-oxadiazol-3-yl)-1,3-dihydro-2H-isoindol-2-yl)cyclohexyl) cyclobutanecarboxamide] |

Continued, molecule first:

| SMILES | inhibition at 1 µM (HDAC6 enzyme) | inhibition at 1 µM (HDAC9 enzyme) | inhibition at 1 µM (HDAC1 enzyme) | melting point | HDAC6 inhibitory rate (%) (1 μM) (HDAC6 enzyme; 1 µM) | HDAC9 inhibitory rate (%) (1 μM) (HDAC9 enzyme; 1 µM) | HDAC1 inhibitory rate (%) (1 μM) (HDAC1 enzyme; 1 µM) |
| --- | --- | --- | --- | --- | --- | --- | --- |
| O=C(N[C@@H]1CCCC[C@H]1N1Cc2ccc(-c3noc(C(F)(F)F)n3)cc2C1=O)[C@@H]1CCCO1 [Example 90, (2S)-N-((1R,2R)-2-(1-oxo-6-(5-(trifluoromethyl)-1,2,4-oxadiazol-3-yl)-1,3-dihydro-2H-isoindol-2-yl)cyclohexyl)tetrahydrofuran-2-carboxamide] | 97% | 37% | 5% | 132 °C | – | – | – |
| O=C(N[C@@H]1CCCC[C@H]1N1Cc2ccc(-c3noc(C(F)(F)F)n3)cc2C1=O)N1C2CCC1COC2 [Example 145, N-((1R,2R)-2-(1-oxo-6-(5-(trifluoromethyl)-1,2,4-oxadiazol-3-yl)-1,3-dihydro-2H-isoindol-2-yl)cyclohexyl)-3-oxa-8-azabicyclo[3.2.1]octane-8-carboxamide] | 98% | 35% | 0% | – | – | – | – |
| O=C(Cc1ccc(F)cc1)N1CCC(N2Cc3ncc(-c4noc(C(F)(F)F)n4)cc3C2=O)CC1 [Example 68, 6-(1-((4-fluorophenyl)acetyl)piperidin-4-yl)-3-(5-(trifluoromethyl)-1,2,4-oxadiazol-3-yl)-6,7-dihydro-5H-pyrrolo[3,4-b]pyridin-5-one] | 90% | 90% | 35% | – | – | – | – |
| CC(C)(C)OC(=O)N[C@H]1CCC[C@@H]1N1Cc2ccc(-c3noc(C(F)(F)F)n3)cc2C1=O [Example 141, tert-butyl ((1S,2S)-2-(1-oxo-6-(5-(trifluoromethyl)-1,2,4-oxadiazol-3-yl)-1,3-dihydro-2H-isoindol-2-yl)cyclopentyl)carbamate] | 42% | 43% | 28% | – | – | – | – |
| Cn1cncc1C(=O)N[C@@H]1CCCC[C@H]1N1Cc2ccc(-c3noc(C(F)(F)F)n3)cc2C1=O [Example 110, 1-methyl-N-((1R,2R)-2-(1-oxo-6-(5-(trifluoromethyl)-1,2,4-oxadiazol-3-yl)-1,3-dihydro-2H-isoindol-2-yl)cyclohexyl)-1H-imidazole-5-carboxamide] | 99% | 73% | 18% | – | – | – | – |
| O=C1c2cc(-c3noc(C(F)(F)F)n3)ccc2CN1[C@@H]1CCCC[C@H]1c1ccccc1 (relative stereo) [Example 17, trans-2-(2-phenylcyclohexyl)-6-(5-(trifluoromethyl)-1,2,4-oxadiazol-3-yl)isoindolin-1-one] | 98% | 85% | 52% | – | – | – | – |
| O=C1CC[C@H](C(=O)N[C@@H]2CCCC[C@H]2N2Cc3ccc(-c4noc(C(F)(F)F)n4)cc3C2=O)N1 [Example 92, 5-oxo-N-((1R,2R)-2-(1-oxo-6-(5-(trifluoromethyl)-1,2,4-oxadiazol-3-yl)-1,3-dihydro-2H-isoindol-2-yl)cyclohexyl)-D-prolinamide] | 96% | 23% | 0% | – | – | – | – |
| O=C1c2cc(-c3noc(C(F)(F)F)n3)ccc2CN1[C@@H]1COCC[C@H]1O [Example 179, 1,5-anhydro-2,4-dideoxy-2-(1-oxo-6-(5-(trifluoromethyl)-1,2,4-oxadiazol-3-yl)-1,3-dihydro-2H-isoindol-2-yl)-D-threo-pentitol] | 90% | 84% | 11% | – | – | – | – |
| O=C1CCCN1[C@@H]1CCOC[C@H]1N1Cc2ccc(-c3noc(C(F)(F)F)n3)cc2C1=O [Example 182, 2-((3S,4R)-4-(2-oxopyrrolidin-1-yl)tetrahydro-2H-pyran-3-yl)-6-(5-(trifluoromethyl)-1,2,4-oxadiazol-3-yl)isoindolin-1-one] | – | – | – | – | 98% | 71% | 10% |
| O=C(N[C@@H]1CCCC[C@H]1N1Cc2ccc(-c3noc(C(F)(F)F)n3)cc2C1=O)C1CC1 (relative stereo) [Example 12, trans-N-(2-(1-oxo-6-(5-(trifluoromethyl)-1,2,4-oxadiazol-3-yl)-1,3-dihydro-2H-isoindol-2-yl)cyclohexyl)cyclopropanecarboxamide] | 98% | 48% | 9% | – | – | – | – |

Source: patent publication US10308643B2, “Heterocyclic compound” (Takeda Pharmaceutical Company Limited, priority 2015, dated 2019)
